Measurements: ChEMBL document CHEMBL5244222, “A comprehensive review on xanthone derivatives as α-glucosidase inhibitors” (Eur J Med Chem, 2018)
Converted amounts (≈) assume the structure as drawn. One block for each molecule: values may come before it.

Tests used:
Alpha-glucosidase [1] = molecular target: T1, Alpha-glucosidase (Saccharomyces cerevisiae S288c, UniProt P53341+P38158+P07265); assay: Inhibition of Saccharomyces cerevisiae alpha-glucosidase assessed as release of p-nitrophenol using pNPG as substrate preincubated for 15 mins followed by substrate addition and measured after 5 mins by spectrophotometric assay; type: protein assay
Alpha-glucosidase [2] = molecular target: T1, Alpha-glucosidase; assay: Inhibition of yeast alpha-glucosidase using p-nitrophenyl-alpha-D-glucopyranoside as substrate incubated for 30 mins by spectrophotometric assay; type: protein assay
Alpha-glucosidase [3] = molecular target: T1, Alpha-glucosidase; assay: Inhibition of Saccharomyces cerevisiae alpha-glucosidase using PNPG as substrate incubated for 30 mins by spectrophotometric assay; type: protein assay
Alpha-glucosidase [4] = molecular target: T1, Alpha-glucosidase; assay: Inhibition of Saccharomyces cerevisiae alpha-glucosidase using maltose as substrate incubated for 30 mins by spectrophotometric assay; type: protein assay
Alpha-glucosidase [5] = molecular target: T1, Alpha-glucosidase; assay: Inhibition of Saccharomyces cerevisiae alpha-glucosidase using pNPG as preincubated for 15 mins followed by substrate addition and measured after 30 mins by spectroscopic analysis
Alpha-glucosidase [6] = molecular target: T1, Alpha-glucosidase; assay: Inhibition of Saccharomyces cerevisiae alpha-glucosidase assessed as release of p-nitrophenol using pNPG as substrate preincubated for 15 mins followed by substrate addition and measured after 15 mins by plate reader analysis; type: protein assay

SMILES: C=C(C)/C=C/c1c(OC)c(OC)cc2oc3cc(O)c(CC(O)C(=C)C)c(O)c3c(=O)c12 (configuration not stated)
IC50 (Alpha-glucosidase [2]): 94.4 µM

SMILES: O=c1c2c(O)cc(O)cc2oc2c(O)ccc(O[C@@H]3O[C@H](CO)[C@@H](O)[C@H](O)[C@H]3O)c12 [NORSWERTIANOLIN]
IC50 (Alpha-glucosidase [5]): 679 µM

SMILES: C=C(C)/C=C/C1(C)C=CC2=C(O1)C(CC=C(C)C)=C1O[C@]34C(C(=O)[C@@H]1C2O)[C@@H](O)[C@@H]1C[C@H]3C(C)(C)O[C@@]4(C/C=C(\C)C(=O)O)C1=O (some centres not stated)
IC50 (Alpha-glucosidase [1]): 194.7 µM

SMILES: CC(C)=CCC/C(C)=C/Cc1c(C)c(CC=C(C)C)c2c(c1O)C(=O)C1=C[C@@H]3C[C@H]4C(C)(C)O[C@@](C/C=C(\C)C(=O)O)(C3=O)[C@@]14O2
IC50 (Alpha-glucosidase [1]): > 300 µM

SMILES: C=C(C)/C=C/[C@@]1(C)C=CC2=C(O1)C(CC=C(C)C)=C1O[C@]34C(C(=O)[C@@H]1C2O)[C@@H](OC)[C@@H]1C[C@H]3C(C)(C)O[C@@]4(C/C=C(\C)C(=O)O)C1=O (some centres not stated)
IC50 (Alpha-glucosidase [1]): 282.7 µM

SMILES: COc1c(OC)c(O)c2c(=O)c3c(O[C@H]4O[C@@H](CO[C@H]5OC[C@@H](O)[C@H](O)[C@H]5O)[C@H](O)[C@H](O)[C@@H]4O)ccc(OC)c3oc2c1OC
IC50 (Alpha-glucosidase [5]): > 1000 µM

SMILES: CC(C)=CCC1=C2O[C@]34C(=C[C@@H]5C[C@H]3C(C)(C)O[C@@]4(CC=C(C)C)C5=O)C(=O)[C@@H]2C(O)C2=C1OC(C)C=C2 (some centres not stated)
IC50 (Alpha-glucosidase [1]): 140.95 µM

SMILES: COc1ccc(O)c2c(=O)c3c(O)cc(O[C@H]4O[C@@H](CO)[C@H](O)[C@H](O)[C@@H]4O)cc3oc12
IC50 (Alpha-glucosidase [5]): > 1000 µM

SMILES: COc1c(OC)c(O[C@H]2O[C@@H](CO[C@H]3OC[C@@H](O)[C@H](O)[C@H]3O)[C@H](O)[C@H](O)[C@@H]2O)c2c(=O)c3c(O)ccc(OC)c3oc2c1OC
IC50 (Alpha-glucosidase [5]): 442 µM

SMILES: C=C(C)/C=C/c1c(O)cc2oc3cc(O)c(OC)c(CCC(C)(C)O)c3c(=O)c2c1O
IC50 (Alpha-glucosidase [3]): 29.9 µM
IC50 (Alpha-glucosidase [4]): 140.2 µM

SMILES: COc1ccc(O)c2c(=O)c3cc(O)ccc3oc12
IC50 (Alpha-glucosidase [6]): 27.6 µg/mL (≈ 107 µM)

SMILES: C=C(C)/C=C/c1c(OC)cc2c(c1O)Cc1cccc(O)c1O2
IC50 (Alpha-glucosidase [3]): 58.5 µM
IC50 (Alpha-glucosidase [4]): > 200 µM

SMILES: COc1cc(O)c2c(=O)c3c(O[C@H]4O[C@@H](CO[C@H]5OC[C@@H](O)[C@H](O)[C@H]5O)[C@H](O)[C@H](O)[C@@H]4O)ccc(OC)c3oc2c1OC
IC50 (Alpha-glucosidase [5]): 136 µM

SMILES: C=C(C)/C=C/c1c(OC)cc2c(c1O)Cc1c(O)ccc(O)c1O2
IC50 (Alpha-glucosidase [3]): 50.5 µM
IC50 (Alpha-glucosidase [4]): > 200 µM

SMILES: C=C(C)C1CCC2(C)CC1c1c(O)c3c(c(CC=C(C)C)c1O2)O[C@]12C(=C[C@@H]4C[C@H]1C(C)(C)O[C@@]2(C/C=C(\C)C(=O)O)C4=O)C3=O (some centres not stated)
IC50 (Alpha-glucosidase [1]): > 300 µM

SMILES: COc1cc(OC)c2c(=O)c3c(O)c(OC)ccc3oc2c1O
IC50 (Alpha-glucosidase [6]): 59 µg/mL (≈ 185 µM)

SMILES: COc1ccc2oc3ccc(O)cc3c(=O)c2c1
IC50 (Alpha-glucosidase [6]): 77.3 µg/mL (≈ 319 µM)

SMILES: COc1c(O)cc2oc3ccc(O)c(OC)c3c(=O)c2c1O
IC50 (Alpha-glucosidase [6]): 63.4 µg/mL (≈ 208 µM)

SMILES: C=C(C)C1Cc2c(c(O)cc3oc4cc(O)c(CC=C(C)C)c(O)c4c(=O)c23)O1 (configuration not stated) [MANGOSTENONE G]
IC50 (Alpha-glucosidase [3]): 45 µM
IC50 (Alpha-glucosidase [4]): > 200 µM

SMILES: C=C(C)/C=C/[C@@]1(C)C=CC2=C(O1)C(CC=C(C)C)=C1O[C@]34C(C(=O)[C@@H]1C2O)[C@@H](OCC)[C@@H]1C[C@H]3C(C)(C)O[C@@]4(C/C=C(\C)C(=O)O)C1=O (some centres not stated)
IC50 (Alpha-glucosidase [1]): > 300 µM

SMILES: COc1ccc(O)c2c(=O)c3c(O[C@H]4O[C@@H](CO)[C@H](O[C@H]5O[C@@H](CO)[C@H](O)[C@H](O)[C@@H]5O)[C@H](O)[C@@H]4O)cc(O)c(OC)c3oc12
IC50 (Alpha-glucosidase [5]): 258 µM

SMILES: C=C(C)/C=C/[C@@]1(C)C=CC2=C(O1)C(CC=C(C)C)=C1O[C@]34C(=C[C@@H]5C[C@H]3C(C)(C)O[C@@]4(CC=C(C)C)C5=O)C(=O)[C@@H]1C2O (some centres not stated)
IC50 (Alpha-glucosidase [1]): > 300 µM

SMILES: COc1c(O)cc(O)c2c(=O)c3cc(O)ccc3oc12
IC50 (Alpha-glucosidase [6]): 12.8 µg/mL (≈ 46.7 µM)

More lines, now with the values ahead:

IC50 (Alpha-glucosidase [1]): 111.8 µM
SMILES: C=C(C)/C=C/[C@]1(C)C=CC2=C(O1)C(CC=C(C)C)=C1O[C@]34C(C(=O)[C@@H]1C2O)[C@@H](OCC)[C@@H]1C[C@H]3C(C)(C)O[C@@]4(C/C=C(\C)C(=O)O)C1=O (some centres not stated)

IC50 (Alpha-glucosidase [2]): 18.2 µM
SMILES: C=C(C)/C=C/c1c(OC)c(OC)cc2oc3cc(O)c(CC=C(C)C)c(O)c3c(=O)c12

IC50 (Alpha-glucosidase [3]): 34.2 µM
IC50 (Alpha-glucosidase [4]): 92.2 µM
SMILES: C=C(C)/C=C/c1c(OC)c(O)cc2oc3cc4c(c(O)c3c(=O)c12)C=CC(C)(C)O4

IC50 (Alpha-glucosidase [5]): 389 µM
SMILES: COc1cc(O)c2c(=O)c3c(O[C@@H]4O[C@H](CO)[C@@H](O)[C@H](O)[C@H]4O)ccc(O)c3oc2c1 [SWERTIANOLIN]

IC50 (Alpha-glucosidase [5]): > 1000 µM
SMILES: COc1cccc2c(=O)c3c(O)cc(O[C@H]4O[C@@H](CO)[C@H](O)[C@H](O)[C@@H]4O)c(OC)c3oc12

IC50 (Alpha-glucosidase [2]): 44 µM
SMILES: COc1cc2c(=O)c3c(O)c(C/C=C(\C)CCC=C(C)C)c(O)cc3oc2cc1O [COWAXANTHONE]

IC50 (Alpha-glucosidase [1]): > 300 µM
SMILES: CC(C)=CCC1=C2O[C@]34C(C[C@@H]5C[C@H]3C(C)(C)O[C@@]4(C/C=C(\C)C(=O)O)C5=O)C(=O)[C@@H]2C(O)C2=C1OC(C)C=C2 (some centres not stated)

IC50 (Alpha-glucosidase [2]): 69 µM
SMILES: COc1c(O)ccc2oc3c4c(c(CC=C(C)C)c(O)c3c(=O)c12)OC(C(C)(O)CCC=C(C)C)C4 (configuration not stated)

IC50 (Alpha-glucosidase [3]): 63.5 µM
IC50 (Alpha-glucosidase [4]): > 200 µM
SMILES: C=C(C)/C=C/c1ccc2oc3c(O)cc(OC)c(CC=O)c3c(=O)c2c1O

IC50 (Alpha-glucosidase [1]): 108.75 µM
SMILES: C=C(C)/C=C/[C@]1(C)C=CC2=C(O1)C(CC=C(C)C)=C1O[C@]34C(C(=O)[C@@H]1C2O)[C@@H](OC)[C@@H]1C[C@H]3C(C)(C)O[C@@]4(C/C=C(\C)C(=O)O)C1=O (some centres not stated)

IC50 (Alpha-glucosidase [5]): 142 µM
SMILES: COc1cc(O[C@H]2O[C@@H](CO[C@H]3OC[C@@H](O)[C@H](O)[C@H]3O)[C@H](O)[C@H](O)[C@@H]2O)c2c(=O)c3c(O)ccc(OC)c3oc2c1OC

IC50 (Alpha-glucosidase [5]): 417 µM
SMILES: COc1ccc(O)c2c(=O)c3c(O[C@H]4O[C@@H](CO[C@H]5OC[C@@H](O)[C@H](O)[C@H]5O)[C@H](O)[C@H](O)[C@@H]4O)cc(O)c(OC)c3oc12

IC50 (Alpha-glucosidase [3]): 31.7 µM
IC50 (Alpha-glucosidase [4]): 155.6 µM
SMILES: C=C(C)/C=C/c1c(OC)c(O)cc2oc3cc4c(c(O)c3c(=O)c12)C=C(O)C(C)(C)O4

IC50 (Alpha-glucosidase [2]): 21.2 µM
SMILES: CC1Oc2cc(O)c3c(=O)c4c(O)ccc(O)c4oc3c2C1(C)C (configuration not stated)

IC50 (Alpha-glucosidase [2]): 8.3 µM
SMILES: C=C(C)/C=C/c1c(O)c(OC)c(/C=C/C(=C)C)c2c(=O)c3c(O)c(CC(O)C(=C)C)c(O)cc3oc12 (configuration not stated)

IC50 (Alpha-glucosidase [1]): 209.2 µM
SMILES: C=C(C)/C=C/[C@]1(C)C=CC2=C(O1)C(CC=C(C)C)=C1O[C@]34C(=C[C@@H]5C[C@H]3C(C)(C)O[C@@]4(CC=C(C)C)C5=O)C(=O)[C@@H]1C2O (some centres not stated)

IC50 (Alpha-glucosidase [1]): 136.35 µM
SMILES: CO[C@@H]1C2C(=O)[C@H]3C(=C(CC=C(C)C)C4=C(C=CC(C)O4)C3O)O[C@@]23[C@H]2C[C@@H]1C(=O)[C@]3(C/C=C(\C)C(=O)O)OC2(C)C (some centres not stated)

IC50 (Alpha-glucosidase [6]): 48.5 µg/mL (≈ 178 µM)
SMILES: COc1ccc2oc3ccc(O)cc3c(=O)c2c1OC

IC50 (Alpha-glucosidase [6]): 7.6 µg/mL (≈ 27.7 µM)
SMILES: COc1c(O)cc2oc3ccc(O)cc3c(=O)c2c1O

IC50 (Alpha-glucosidase [5]): 478 µM
SMILES: COc1ccc(O)c2c(=O)c3c(O[C@H]4O[C@@H](CO[C@@H]5O[C@@H](CO)[C@H](O)[C@H](O)[C@@H]5O)[C@H](O)[C@H](O)[C@@H]4O)cc(O)c(OC)c3oc12

IC50 (Alpha-glucosidase [5]): 578 µM
SMILES: COc1ccc(O)c2c(=O)c3c(O[C@H]4O[C@@H](CO)[C@H](O)[C@H](O)[C@@H]4O)cc(O)c(OC)c3oc12

IC50 (Alpha-glucosidase [1]): > 300 µM
SMILES: CC(C)=CCC/C(C)=C/Cc1c(C)c(CC=C(C)C)c2c(c1O)C(=O)C1=C[C@@H]3C[C@H]4C(C)(C)O[C@@](CC=C(C)C)(C3=O)[C@@]14O2
